The target of the assay is wild type PAN ΔLoop protein (Influenza A virus, UniProt C3W5S0, DEL51-57/DEL61-72/E59G). The format is biochemical, influenza A/California/04/2009 H1N1. The following applies: read-out: FRET IC50.

Structures are written as SMILES.

`O=C(O)C(=O)CC(=O)c1ccccc1` [DPBA, reference compound]: the IC50 was determined as 98 ± 3 nM.
